This is an account of results in patent publication US8513250B2 (Laboratoire Biodim, priority 2007, dated 2013).

In assay [1] the test system is S. agalactiae NEM316 WT. Nature of the assay: Minimal Inhibitory Concentration (MIC) assay, absence of colistin. Format: cell-based. The settings on record: Streptococcus agalactiae, NEM316WT; S. agalactiae wt strain, absence of colistin, overnight, no visible growth; read-out: MIC SAG wt.
The subject of assay [2] is S. agalactiae NEM316 WT. The assay is described as follows: Minimal Antivirulent Concentration (MAC) assay, sensitization of bacteria to colistin. In kind it is cell-based. The settings on record: S. agalactiae wt strain, in presence of colistin 32 μg/ml, overnight, no visible growth. An excerpt:
The readout of the assay is called Minimum antivirulent concentration (MAC) and represents the minimal dose of compound for which no visible bacterial growth is observed in the presence of colistin at a subinhibitory concentration. MAC assay is described in Method 3 hereinafter.
Method 3: Assay for Minimal Antivirulent Concentration (MAC) and Minimal Inhibitory Concentration (MIC): Determination of Compounds Activity for Sensitization of Bacteria to Cationic Peptide (Colistin)
The Gram positive bacteria S. agalactiae NEM316 WT are grown on tryptic soy agar (TSA) broth over-night at 37° C. with air enriched with 5% CO2. Ten to fifteen colonies isolated from over-night growth on agar are then added to 10 ml of TS media to produce a standard suspension of organisms. This pre-culture is incubated at 37° C. with constant shaking during two to three hours to reach the exponential phase. This suspension is diluted to obtain a final inoculum of 1E+04 CFU/ml. Viable counts are obtained by plating 10 to 1000-fold dilutions of the suspension on TSA.
According to our standardized conditions, the final volume in the well is 100 μl in a 96-well microplate. Compounds are tested in a range of 1 to 32 μg/mL. Each well contains 2 μl of compound diluted in 100% DMSO, 48 μl of TS (microplate without colistin) or 48 μl of colistin in TS (final concentration of colistin is 32 μg/ml for S. agalactiae), then […] (final inoculum of 1 E+04 CFU/ml). Final concentration of DMSO is 2%. Positive growth control wells for each organism are prepared with and without colistin and DMSO 2% final concentration. S. agalactiae NEM316 Δdlt is used in control wells to verify the effect of the colistin on a sensitive strain.
The microplates are then incubated overnight at 37° C. with 5% CO2. Visible bacterial growth is finally quantified by unaided eye.
The MAC of each compound is derived from the experiment in presence of colistin and is defined as the minimal concentration of compound for which no bacterial visible growth is observed.

In a further assay the target is T1, DltA enzyme (Streptococcus agalactiae serotype III, UniProt Q8VM67).
T1 construct: His-tag (from pET100 vector) (N); made in house; host or cells: E. coli BL21 (DE3) Star
T1 sequence (Q8VM67 1-511): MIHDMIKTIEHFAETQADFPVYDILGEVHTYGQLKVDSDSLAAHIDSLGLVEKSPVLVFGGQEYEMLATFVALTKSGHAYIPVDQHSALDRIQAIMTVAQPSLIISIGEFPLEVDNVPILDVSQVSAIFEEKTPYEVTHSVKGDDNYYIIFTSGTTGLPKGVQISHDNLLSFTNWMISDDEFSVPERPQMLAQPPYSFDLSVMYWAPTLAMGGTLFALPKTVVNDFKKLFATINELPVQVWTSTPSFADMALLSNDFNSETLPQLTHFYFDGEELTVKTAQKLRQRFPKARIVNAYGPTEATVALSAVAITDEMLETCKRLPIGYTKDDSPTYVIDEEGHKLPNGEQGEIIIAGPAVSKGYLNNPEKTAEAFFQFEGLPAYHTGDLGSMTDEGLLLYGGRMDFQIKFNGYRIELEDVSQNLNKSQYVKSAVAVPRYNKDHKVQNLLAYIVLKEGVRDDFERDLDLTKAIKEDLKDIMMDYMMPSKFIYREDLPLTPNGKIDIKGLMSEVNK
The assay is described as follows: DltA HTS assays (luminescent / fluorescent), inhibition of DltA enzymatic activity in vitro. To be noted: Table 1; DltA inhibition, HTS assays of method 1; read-out: IC50. Format: biochemical, S. agalactiae.

The subject of assay [3] is S. agalactiae strain NEM316. Nature of the assay: Experimental model of systemic infection in mice, organ bacteraemia at 48 h. Format: in vivo. The settings on record: BALB/c mice, i.v. infection, compound intraperitoneal immediately after infection, spleen bacteraemia 48 h. The protocol:
The effect of DltA inhibitors on the bacteria during an infection was assessed by injecting the molecules at different doses in group of mice that have received an infective dose of bacteria.
Description of Experimental Models Used to Assess the Efficacy of Inhibitors In Vivo:
Briefly, in vivo studies were performed using 4-5-week-old female BALB/c@Rj nice. S. agalactiae strain NEM316 bacteria were grown to exponential phase in broth culture. 200 μl of a bacterial suspension of 3.10^7 CFU/ml were administered by intravenous injection to groups of six mice (6.10^6 CFU/mouse). Exact inoculums counts were determined by plating 10-fold dilutions of the suspension on TH agar plates immediately after inoculation.
The compounds to be assessed are dissolved and diluted to obtain different concentration in a solution containing solutol; and 400 μl of each compound solution is injected intraperinonaly immediately after infection of the mouse. […]
The antibacterial effect obtained with different concentrations of compounds is measured by the level of bacteraemia observed at 48 H.
The graphs represent the average value of the organ bacteremia that is determined by the number of UFC/mg of organs (spleen) at 48 h post infection, obtained for each group of mice that have received different concentration of compounds (expressed in mg/kg). […]

In assay [4] the test system is dltA defective mutant of S. agalactiae. Nature of the assay: Colistin activity on dltA defective mutant. Format: cell-based. From the text: (§1) The peptide used was colistin which mimicks the effect of antibacterial cationic peptide of innate immunity. In common with other polymixins, colistin is rapidly bactericidal and exerts its effect by acting as a cationic detergent, causing disruption of the integrity of the bacterial cell membrane, with leakage of intracellular contents and cell death.

The test system of assay [5] is S. agalactiae strain NEM316. The assay is described as follows: Colistin activity on wild type S. agalactiae. In kind it is cell-based.
Source text: as §1

Another assay relates to S. aureus strain 54.316. Nature of the assay: Colistin activity on S. aureus. In kind it is cell-based.
Source text: as §1

Bounds are passed on as bounds.

For orientation: MIC means the lowest concentration that inhibits growth of the organism. In general, IC50 refers to the concentration at which inhibition is half-maximal. Turning to `OCCCNc1nc2cc(C(F)(F)F)ccc2n2c(-c3ccn[nH]3)cnc12` [Example 19, 3-{[1-(1H-pyrazol-5-yl)-7-(trifluoromethyl)imidazo[1,2-a]quinoxalin-4-yl]amino}propan-1-ol], the MIC in the assay on S. agalactiae NEM316 WT [1] is over 32 µg/mL. Besides, the “MAC” value in the assay with S. agalactiae NEM316 WT [2] was 2 µg/mL. For the same compound, the IC50 at DltA enzyme amounted to 9 nM. In assay [3], this compound had an effective concentration of 10 mg/kg.
colistin: in assay [4], the “dose that can inhibit totally the growth” value was 32 µg/mL. Moreover, the MIC (in assay [5] (S. agalactiae strain NEM316 wild type); in the assay on S. aureus strain 54.316) was at least 1024 µg/mL throughout. Besides, in assay [5] (colistin 32 μg/ml, S. agalactiae wild type), the “effect on the wild type strain growth” value is “without effect”.
